Experimental data published in US6790833B2, “Antifungal and antibacterial agents” (priority 2001, dated 2004).
Where a SMILES comes first, the peptide text is derived from it.

Tests used:
C. neoformans [1] = test: Fungal transmembrane potential, DiSC3(5) dye release; assay type: cell-based, Cryptococcus neoformans; conditions: peptide 18 μM, 1500 second
Experimental: (§1) Peptide-induced permeabilization of C. albicans and C. neoformas cell membranes was monitored by measuring changes in transmembrane potential. Measurements were carried out using the transmembrane potential sensitive dye 3,3′-dipropyl-2,2′-thiadicarbocyanine iodide (DiSC3(5)). Fungi were grown overnight on SAB plates and resuspended in 10 mM Na phosphate buffer pH 7.4 at a concentration of 1×10^5 cells/ml. Dye was diluted in ethanol to achieve a final concentration of 714 nM. […] The use of this dye in fungal cells to monitor changes in permeabilization is reliable and well documented. This cationic dye accumulates on membranes, is translocated into the lipid bilayer and aggregates within the confined membrane interior. Once aggregated inside the cell, the molecules interact with each other, losing energy, and decreasing fluorescence through a process called quenching. If permeabilization occurs, dye is released into the medium and it regains its fluorescent properties, allowing it to be detected. Experiments were carried out using a spectrofluorimeter (Perkin Elmer LS 50 B). A water bath and circulator was connected to the machine.

C. neoformans [2] = test: Fluorescence light and confocal microscopy, internalization of FITC-labeled peptide; assay type: cell-based, Cryptococcus neoformans
Experimental: (§2) The internalization of MUC7 20-mer into fungi was visualized in C. albicans and C. neoformans. Untreated cells (10^7) or cells preincubated with 20 mM sodium azide, 300 μM CCCP, 50 mM Ca^++ or 50 mM Mg^++ were then treated with 50 μM FITC-MUC7 20-mer for 45-90 minutes in 100 μl of Na phosphate buffer (10 mM, pH 7.4) at 37° C. Untreated cells were also incubated with 50 μM FITC-MUC7 20-mer at 4° C. The cells were then extensively washed with phosphate buffer, concentrated and resuspended in the same buffer. The cell suspension was then quickly mounted on slides with sealed cover-slips. Fluorescence light micrographs were made on a Nikon Optiphot microscope, with a fluorescent light source.
(§3) The intracellular localization of FITC-MUC7-20mer was investigated in a double-labeling experiment using MitoTracker Red mitochondrial probe. C. albicans and C. neoformans were incubated with 500 nM MitoTracker Red in 10 mM Na phosphate buffer, pH 7.4 for 15 minutes at room temperature, washed three times with the same buffer, and subsequently incubated with 50 μM FITC-MUC7 20-mer. After 20 min. incubation at 37° C., the suspension was washed with phosphate buffer extensively. The cell suspension was then quickly mounted on slides with sealed cover-slips. Confocal fluorescence microscopy was performed with a BioRad MRC-1024 confocal microscope system with Krypton-argon laser which outputs 488, 568 and 647 nm excitation line and Nikon upright epifluorescence microscope (Zeiss 60× oil immersion planApp objective with 1.4 numerical aperture).
(§4) The internalization of MUC7 20-mer and 12-mer-3 into fungi was visualized using FITC labeled peptides. Cells (10^7) were treated with 50 μM FITC-MUC7 20-mer or 12-mer-3 for 45-90 mins in 100 μl of Na phosphate buffer (10 mM, pH 7.4) at 37° C. The cells were then processed and visualized as described in Example 1.

C. albicans [3] = test: Antifungal (cidal) activity assay, loss of cell viability; assay type: cell-based, Candida albicans; conditions: for Loss of Cell viability (%): Candida albicans, 6.25 μM, pH 7.4
From the text: (§5) Azole-sensitive (# 2-76) and azole-resistant (# 12-99) clinical isolates of C. albicans were a gift from Dr. Theodore C. White (University of Washington and Seattle Biomedical Research Institute, Seattle, Wash.). An azole-sensitive Candida glabrata (C. glabrata) was purchased from ATCC (ATCC 90030) and its azole-resistant counterpart, clinical isolate 65C, was obtained from Dr. John E. Bennett (National Institute of Allergy and Infectious Diseases, Bethesda, Md.). A clinical isolate of Candida krusei (C. krusei) was obtained from the Erie County Medical Center, Buffalo, N.Y. Amphotericin B-sensitive (CN2) and -resistant (CN2843) C. neoformans strains were obtained from AIDS patients with cryptococcal meningitis and were generously provided by Dr. John H. Rex (University of Texas Medical School, Houston, Tex.). Additionally, Saccharomyces cerevisiae (S. serevisiae) strain S288C was provided by Dr. D. Kosman, Department of Biochemistry, University at Buffalo, the State University of New York. All fungi were streaked and grown on SAB plates at 37° C., except S. cerevisiae, which was grown at 30° C. until large colonies were formed. One colony was then picked and resuspended in Na phosphate buffer (pH 7.4) and the concentration was adjusted to 1×10^5 cell/ml for the antifungal assay described below.
(§6) Two fold serial dilutions of each peptide (ranging from 100 μM down to 1.5625 μM) in 20 μl of 10 mM Na phosphate buffer, pH 7.4, were incubated with an equal volume of bacterial or fungal strain (10^5 cells/ml) for 1.5 hours at 30° C. for S. cerevisiae and 37° C. for the rest of strains tested. At the end of incubation, the samples were diluted 20 fold and aliquots (˜120 cells) of each sample were plated on appropriate plates depending on the strain tested, as indicated above. Plates were incubated for 1 to 7 days aerobically or anaerobically, depending on the strain tested. Colonies were then counted, and the loss of cell viability was plotted as a function of protein concentration. Fungicidal activities against C. albicans and C. neoformans were also tested at 4° C.
(§7) To test the effect of inhibitors of oxidative phosphorylation in the mitochondrial system on peptide-induced killing, C. albicans and C. neoformans (CN2) were preincubated with either 20 mM sodium azide or 300 μM CCCP for 2 hours at 37° C. The cidal assays were then carried out as described above. In separate control experiments, both inhibitors were evaluated for their toxicity toward C. albicans and C. neoformans (CN2) in the absence of peptides. At these concentrations, neither compound had any cidal effect. In addition, the fungicidal activities of MUC7 20-mer and Hsn-5 (25 μM) in 10 mM Na phosphate buffer (pH 7.4) in the presence of varying concentrations (1-50 mM) of Ca^++ (as CaCl2) or Mg^++ (as MgCl2) were examined.
(§8) A time course study of peptide-induced killing was statistically analyzed by student t-test.
(§9) Two fold serial dilutions of each peptide (ranging from 50 or 25 μM down to 1.5625 μM) in 20 μl of 10 mM Na phosphate buffer, pH 7.4, were incubated with an equal volume of fungal strain (10^5 cells/ml, also in Na phosphate buffer) for 1.5 hours at 37°. At the end of incubation, the samples were diluted 20 fold with the same buffer and aliquots (˜150 cells) of each sample were plated on SAB plates. Plates were incubated for 1 to 2 days for C. albicans and C. neoformans, respectively. Colonies were then counted, and the loss of cell viability was plotted as a function of protein concentration. The statistical analysis was as described in Example 1.

C. albicans [4] = test: Fungal transmembrane potential, DiSC3(5) dye release; assay type: cell-based, Candida albicans; conditions: peptide 18 μM, 1500 second
Experimental: as §1

C. neoformans [5] = test: Antifungal (cidal) activity assay, loss of cell viability; assay type: cell-based, Cryptococcus neoformans; conditions: for Loss of Cell viability (%): Cryptococcus neoformans, 6.25 μM, pH 7.4
From the text: as §5, §6, §7, §8, §9

C. albicans [6] = test: Fluorescence light and confocal microscopy, internalization of FITC-labeled peptide; assay type: cell-based, Candida albicans
Experimental: as §2, §3, §4

A. actinomycetemcomitans = test: Fluorescence microscopy, internalization of FITC-labeled peptide in bacteria; assay type: cell-based, Actinobacillus actinomycetemcomitans; conditions: data not shown
From the text: In order to visualize the association of 20-mer with fungi or bacteria and its fungal cellular localization, N-terminal FITC-labeled MUC7 20-mer was used. […] In addition, confocal fluorescence microscopy was used to study the intracellular target of the peptides.

[7] = 4° C., 20 mM sodium azide, 300 μM CCCP

`CC[C@H](C)[C@H](NC(=O)[C@H](Cc1ccccc1)NC(=O)[C@@H]1CCCN1C(=O)[C@H](CCCCN)NC(=O)[C@H](CCC(N)=O)NC(=O)[C@H](Cc1c[nH]cn1)NC(=O)[C@H](C)NC(=O)[C@@H](N)CC(C)C)C(=O)N[C@@H](CCCNC(=N)N)C(=O)N[C@@H](CCCCN)C(=O)N[C@@H](CO)C(=O)N[C@@H](Cc1ccc(O)cc1)C(=O)N[C@@H](CCCCN)C(=O)N[C@@H](CS)C(=O)N[C@@H](CC(C)C)C(=O)N[C@@H](Cc1c[nH]cn1)C(=O)N[C@@H](CCCCN)C(=O)N[C@@H](CCCNC(=N)N)C(=O)N[C@@H](CS)C(=O)N[C@@H](CCCNC(=N)N)C(=O)O` [Peptide 20-mer] (H-LAHQKPFIRKSYKCLHKRCR-OH; N-terminus and C-terminus assumed) was tested, and the “release of DiSC3(5) dye (loss of membrane potential)” value (C. neoformans [1]) was “rapid release of dye”, the “internalization of FITC-labeled peptide” value (C. neoformans [2]; 50 μM, 45-90 minutes, 37° C.) was “internalization is observed” and the “uptake at 4° C. or after pretreatment with sodium azide or CCCP” value (C. neoformans [2]; [7]) was “did not affect uptake”. The “killing activity at 4° C.” value (C. albicans [3]) was ~90%, the “effect of pretreatment with CCCP or sodium azide on peptide-induced killing” value (C. albicans [3]; C. albicans, 300 μM CCCP or 20 mM sodium azide, 2 hours) was “did not protect” and the “effect of 1 mM Ca++ or Mg++ on anticandidal activity” value (C. albicans [3]; C. albicans, 1 mM Ca++ or Mg++, peptide 25 μM) was “limited effect”. The “anticandidal activity sustained in the presence of Ca++ or Mg++” value (C. albicans [3]; C. albicans, 10 mM Ca++ or Mg++, peptide 25 μM) was 10%, the “Loss of Cell viability (%)” value (C. albicans [3]; 15 min) was 42 + 5% and the “Loss of Cell viability (%)” value (C. albicans [3]; 30 min) was 52 + 1%. For the same compound, the “Loss of Cell viability (%)” value (C. albicans [3]; 45 min) was 64 + 3%, the “Loss of Cell viability (%)” value (C. albicans [3]; 90 min) was 74 + 6% and the “release of DiSC3(5) dye (loss of membrane potential)” value (C. albicans [4]) was “rapid release of dye”. For the same compound, the “killing retained in the presence of Ca++” value (C. neoformans [5]; 25 μM) was 90%, the “killing retained in the presence of Mg++” value (C. neoformans [5]; 25 μM) was 84% and the “effect of pretreatment with CCCP or sodium azide on peptide-induced killing” value (C. neoformans [5]; C. neoformans, 300 μM CCCP or 20 mM sodium azide, 2 hours) was “did not protect”. The “activity at 4° C.” value (C. neoformans [5]; C. neoformans, 4° C.) was “hardly affected”, the “Loss of Cell viability (%)” value (C. neoformans [5]; 30 min) was 96 + 2% and the “Loss of Cell viability (%)” value (C. neoformans [5]; 45 min) was 98 + 1%. For the same compound, the “Loss of Cell viability (%)” value (C. neoformans [5]; 90 min) was 100 + 0%, the “internalization of FITC-labeled peptide” value (C. albicans [6]; 50 μM, 45-90 minutes, 37° C.) was “internalization is observed” and the “uptake at 4° C. or after pretreatment with sodium azide or CCCP” value (C. albicans [6]; [7]) was “did not affect uptake”. The “internalization in bacterial cells” value (A. actinomycetemcomitans) was “seen on the cell membrane and the inside”.
